Measured values from the NIST ThermoML archive (doi:10.1021/je8007759).

Experiment: xn = mol fraction of the nth substance listed

CC1CCC(=O)O1 (stereo not given) [γ-valerolactone] + O=C=O
mass density [kg/m3], Fluid (supercritical or subcritical phases), Pycnometric method
Conditions	308.2 K	313.2 K
7520 kPa, x1 = 0.1	928	–
7560 kPa, x1 = 0.05	838	–
7630 kPa, x1 = 0.01	665	–
7630 kPa, x1 = 0.05	842	–
7640 kPa, x1 = 0.025	781	–
7650 kPa, x1 = 0.01	669	–
7670 kPa, x1 = 0.01	673	–
7670 kPa, x1 = 0.1	932	–
7690 kPa, x1 = 0.01	677	–
7710 kPa, x1 = 0.05	845	–
7710 kPa, x1 = 0.15	979	–
7720 kPa, x1 = 0.01	681	–
7720 kPa, x1 = 0.025	786	–
7750 kPa, x1 = 0.01	685	–
7790 kPa, x1 = 0.01	690	–
7810 kPa, x1 = 0.1	935	–
7820 kPa, x1 = 0.025	792	–
7830 kPa, x1 = 0.01	694	–
7850 kPa, x1 = 0.05	850	–
7870 kPa, x1 = 0.01	698	–
7910 kPa, x1 = 0.01	703	–
7930 kPa, x1 = 0.025	798	–
7970 kPa, x1 = 0.01	710	–
8050 kPa, x1 = 0.01	717	–
8060 kPa, x1 = 0.025	804	–
8110 kPa, x1 = 0.05	855	–
8150 kPa, x1 = 0.01	724	–
8170 kPa, x1 = 0.025	809	–
8200 kPa, x1 = 0.15	–	962
8230 kPa, x1 = 0.15	982	–
8300 kPa, x1 = 0.01	734	547
8310 kPa, x1 = 0.01	–	557
8320 kPa, x1 = 0.01	–	561
8330 kPa, x1 = 0.01	–	565
8340 kPa, x1 = 0.01	–	568
8340 kPa, x1 = 0.05	–	809
8340 kPa, x1 = 0.1	942	–
8350 kPa, x1 = 0.01	–	572
8350 kPa, x1 = 0.025	815	–
8370 kPa, x1 = 0.01	–	576
8370 kPa, x1 = 0.025	–	726
8380 kPa, x1 = 0.01	–	581
8380 kPa, x1 = 0.1	–	913
8390 kPa, x1 = 0.01	–	589
8400 kPa, x1 = 0.05	862	–
8410 kPa, x1 = 0.01	–	592
8410 kPa, x1 = 0.025	–	730
8420 kPa, x1 = 0.01	–	596
8430 kPa, x1 = 0.01	–	602
8440 kPa, x1 = 0.01	–	606
8450 kPa, x1 = 0.025	–	736
8460 kPa, x1 = 0.01	744	609
8460 kPa, x1 = 0.05	–	814
8470 kPa, x1 = 0.01	–	612
8480 kPa, x1 = 0.01	–	616
8500 kPa, x1 = 0.01	–	619
8510 kPa, x1 = 0.025	–	740
8520 kPa, x1 = 0.01	–	623
8520 kPa, x1 = 0.1	–	916
8530 kPa, x1 = 0.01	–	627
8530 kPa, x1 = 0.025	822	–
8550 kPa, x1 = 0.025	–	745
8560 kPa, x1 = 0.01	–	630
8580 kPa, x1 = 0.01	–	634
8580 kPa, x1 = 0.15	–	965
8600 kPa, x1 = 0.01	–	638
8620 kPa, x1 = 0.025	–	750
8630 kPa, x1 = 0.01	–	641
8650 kPa, x1 = 0.01	–	645
8670 kPa, x1 = 0.01	754	–
8670 kPa, x1 = 0.05	–	820
8680 kPa, x1 = 0.01	–	649
8680 kPa, x1 = 0.1	946	–
8700 kPa, x1 = 0.025	827	755
8720 kPa, x1 = 0.01	–	653
8750 kPa, x1 = 0.01	–	657
8750 kPa, x1 = 0.05	869	–
8760 kPa, x1 = 0.1	–	920
8780 kPa, x1 = 0.01	–	661
8780 kPa, x1 = 0.025	–	760
8810 kPa, x1 = 0.01	–	665
8830 kPa, x1 = 0.15	985	–
8850 kPa, x1 = 0.01	–	669
8880 kPa, x1 = 0.025	–	765
8880 kPa, x1 = 0.05	–	826
8890 kPa, x1 = 0.01	–	673
8910 kPa, x1 = 0.01	765	–
8940 kPa, x1 = 0.01	–	677
8940 kPa, x1 = 0.025	833	–
8960 kPa, x1 = 0.025	–	771
8990 kPa, x1 = 0.01	–	681
9000 kPa, x1 = 0.1	–	923
9040 kPa, x1 = 0.01	–	686
9060 kPa, x1 = 0.025	–	775
9070 kPa, x1 = 0.15	–	969
9100 kPa, x1 = 0.01	–	690
9140 kPa, x1 = 0.05	875	–
9150 kPa, x1 = 0.01	–	694
9180 kPa, x1 = 0.01	775	–
9180 kPa, x1 = 0.025	840	781
9180 kPa, x1 = 0.05	–	835
9200 kPa, x1 = 0.01	–	698
9280 kPa, x1 = 0.01	–	703
9280 kPa, x1 = 0.1	–	926
9310 kPa, x1 = 0.025	–	786
9340 kPa, x1 = 0.01	–	708
9380 kPa, x1 = 0.1	953	–
9400 kPa, x1 = 0.15	988	–
9410 kPa, x1 = 0.025	845	–
9430 kPa, x1 = 0.01	–	712
9440 kPa, x1 = 0.05	–	841
9450 kPa, x1 = 0.025	–	792
9500 kPa, x1 = 0.01	787	717
9510 kPa, x1 = 0.05	881	–
9550 kPa, x1 = 0.1	–	929
9590 kPa, x1 = 0.01	–	721
9590 kPa, x1 = 0.025	–	798
9670 kPa, x1 = 0.15	–	972
9680 kPa, x1 = 0.01	–	727
9700 kPa, x1 = 0.025	852	–
9710 kPa, x1 = 0.05	–	847
9780 kPa, x1 = 0.025	–	803
9880 kPa, x1 = 0.01	–	736
9880 kPa, x1 = 0.1	–	932
9890 kPa, x1 = 0.01	798	–
9970 kPa, x1 = 0.025	–	810
9980 kPa, x1 = 0.15	991	–
10000 kPa, x1 = 0.1	958	–
10030 kPa, x1 = 0.05	–	852
10120 kPa, x1 = 0.01	–	746
10180 kPa, x1 = 0.025	–	815
10180 kPa, x1 = 0.1	–	936
10310 kPa, x1 = 0.15	–	976
10350 kPa, x1 = 0.01	810	–
10370 kPa, x1 = 0.1	–	938
10390 kPa, x1 = 0.01	–	755
10390 kPa, x1 = 0.05	–	859
10400 kPa, x1 = 0.025	–	821
10540 kPa, x1 = 0.1	–	939
10620 kPa, x1 = 0.15	–	978
10630 kPa, x1 = 0.025	–	827
10680 kPa, x1 = 0.01	–	767
10720 kPa, x1 = 0.15	995	–
10750 kPa, x1 = 0.05	–	865
11040 kPa, x1 = 0.1	967	–
11360 kPa, x1 = 0.15	999	–
11550 kPa, x1 = 0.1	970	–
11980 kPa, x1 = 0.15	1002	–
12070 kPa, x1 = 0.1	974	–
12550 kPa, x1 = 0.1	978	–
12950 kPa, x1 = 0.15	1006	–
13110 kPa, x1 = 0.1	981	–
13620 kPa, x1 = 0.15	1009	–
13640 kPa, x1 = 0.1	984	–
14250 kPa, x1 = 0.1	989	–
14410 kPa, x1 = 0.15	1013	–
14770 kPa, x1 = 0.1	992	–
15180 kPa, x1 = 0.15	1016	–
16060 kPa, x1 = 0.15	1020	–
16850 kPa, x1 = 0.15	1023	–

308.2 K, Liquid, high pressure variable cell
Conditions	mass density [kg/m3]
x1 = 0.01	663
x1 = 0.025	777
x1 = 0.05	834
x1 = 0.1	920
x1 = 0.15	972
